ChEMBL document CHEMBL3751799, “Fluorinated matrix metalloproteinases inhibitors--Phosphonate based potential probes for positron emission tomography” (Bioorg Med Chem, 2016)
The source made the active and inactive calls. The rule behind the calls is not given here.

Legend:
[1] = molecular target: T1, Matrix metalloproteinase-9 (Homo sapiens, UniProt P14780); experiment: Inhibition of human MMP9 using (7-methoxycoumarin-4-yl) acetyl pro-Leu-Gly-Leu-[3-(2,4-dinitrophenyl)-L-2,3-diamino-propionyl]-Ala-Arg-NH2 as substrate preincubated for 30 mins followed by substrate addition by microplate reader analysis
T1 sequence (P14780 whole entry): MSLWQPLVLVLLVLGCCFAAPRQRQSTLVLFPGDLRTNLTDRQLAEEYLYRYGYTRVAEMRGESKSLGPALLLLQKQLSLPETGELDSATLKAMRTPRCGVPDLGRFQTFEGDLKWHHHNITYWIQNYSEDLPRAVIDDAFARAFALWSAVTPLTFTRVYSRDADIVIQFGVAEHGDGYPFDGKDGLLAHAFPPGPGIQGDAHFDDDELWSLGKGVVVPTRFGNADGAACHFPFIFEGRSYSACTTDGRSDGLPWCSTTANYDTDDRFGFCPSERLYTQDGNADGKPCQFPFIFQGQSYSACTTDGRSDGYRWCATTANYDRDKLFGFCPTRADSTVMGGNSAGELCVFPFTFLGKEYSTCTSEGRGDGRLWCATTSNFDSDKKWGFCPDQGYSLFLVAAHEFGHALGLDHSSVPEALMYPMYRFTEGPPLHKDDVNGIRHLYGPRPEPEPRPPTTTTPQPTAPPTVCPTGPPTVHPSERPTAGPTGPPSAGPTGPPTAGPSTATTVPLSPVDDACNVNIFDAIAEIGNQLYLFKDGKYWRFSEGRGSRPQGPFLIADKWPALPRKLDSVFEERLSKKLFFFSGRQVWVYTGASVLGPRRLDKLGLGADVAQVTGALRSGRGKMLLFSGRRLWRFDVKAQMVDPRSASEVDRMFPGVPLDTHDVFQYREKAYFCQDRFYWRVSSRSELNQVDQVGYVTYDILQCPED

Neutrophil collagenase [2] = molecular target: T2, Neutrophil collagenase (Homo sapiens, UniProt P22894); experiment: Inhibition of MMP8 (unknown origin) using (7-methoxycoumarin-4-yl) acetyl pro-Leu-Gly-Leu-[3-(2,4-dinitrophenyl)-L-2,3-diamino-propionyl]-Ala-Arg-NH2 as substrate preincubated for 30 mins followed by substrate addition by microplate reader analysis
Target sequence in this assay (P22894 whole entry): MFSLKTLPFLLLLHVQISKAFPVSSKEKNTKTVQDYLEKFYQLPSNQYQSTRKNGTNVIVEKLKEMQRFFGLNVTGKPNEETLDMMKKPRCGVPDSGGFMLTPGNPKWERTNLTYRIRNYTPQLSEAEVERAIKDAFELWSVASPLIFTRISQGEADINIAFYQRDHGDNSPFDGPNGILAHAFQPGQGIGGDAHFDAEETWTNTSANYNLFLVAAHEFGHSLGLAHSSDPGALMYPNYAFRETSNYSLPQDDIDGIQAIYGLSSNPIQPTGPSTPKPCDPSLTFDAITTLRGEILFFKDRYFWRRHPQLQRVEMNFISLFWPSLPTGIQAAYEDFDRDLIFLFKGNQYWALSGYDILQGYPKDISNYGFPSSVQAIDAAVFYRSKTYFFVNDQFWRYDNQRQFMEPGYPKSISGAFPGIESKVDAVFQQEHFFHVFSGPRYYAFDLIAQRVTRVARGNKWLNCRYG

Collagenase 3 [3] = molecular target: T3, Collagenase 3 (Homo sapiens, UniProt P45452); experiment: Inhibition of MMP13 (unknown origin) using (7-methoxycoumarin-4-yl) acetyl pro-Leu-Gly-Leu-[3-(2,4-dinitrophenyl)-L-2,3-diamino-propionyl]-Ala-Arg-NH2 as substrate preincubated for 30 mins followed by substrate addition by microplate reader analysis
[4] = molecular target: T4, 72 kDa type IV collagenase (Homo sapiens, UniProt P08253); experiment: Inhibition of human MMP2 using (7-methoxycoumarin-4-yl) acetyl pro-Leu-Gly-Leu-[3-(2,4-dinitrophenyl)-L-2,3-diamino-propionyl]-Ala-Arg-NH2 as substrate preincubated for 30 mins followed by substrate addition by microplate reader analysis
Target sequence in this assay (P08253 whole entry): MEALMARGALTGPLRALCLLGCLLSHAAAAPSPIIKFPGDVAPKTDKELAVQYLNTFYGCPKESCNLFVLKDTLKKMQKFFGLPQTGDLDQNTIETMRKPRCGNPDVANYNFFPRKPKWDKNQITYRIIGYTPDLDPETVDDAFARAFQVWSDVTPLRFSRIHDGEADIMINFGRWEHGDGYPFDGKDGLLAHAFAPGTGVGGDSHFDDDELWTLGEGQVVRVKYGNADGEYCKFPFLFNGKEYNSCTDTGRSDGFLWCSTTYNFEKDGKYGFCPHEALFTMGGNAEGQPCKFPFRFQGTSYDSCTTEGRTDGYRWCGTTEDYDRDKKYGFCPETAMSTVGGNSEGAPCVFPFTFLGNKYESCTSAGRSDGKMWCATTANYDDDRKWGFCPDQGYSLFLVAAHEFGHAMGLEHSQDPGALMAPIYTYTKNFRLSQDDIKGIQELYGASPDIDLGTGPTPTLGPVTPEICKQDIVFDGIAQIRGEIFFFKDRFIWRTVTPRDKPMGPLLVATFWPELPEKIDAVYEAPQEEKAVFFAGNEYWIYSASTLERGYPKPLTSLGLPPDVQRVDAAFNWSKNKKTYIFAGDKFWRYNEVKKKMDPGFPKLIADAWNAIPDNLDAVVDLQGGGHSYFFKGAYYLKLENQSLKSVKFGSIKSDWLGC

[5] = molecular target: T4, 72 kDa type IV collagenase; experiment: Inhibition of human MMP2 up to 100 uM using (7-methoxycoumarin-4-yl) acetyl pro-Leu-Gly-Leu-[3-(2,4-dinitrophenyl)-L-2,3-diamino-propionyl]-Ala-Arg-NH2 as substrate preincubated for 30 mins followed by substrate addition by microplate reader analysis
Target sequence in this assay (P08253 110-660 limits assumed): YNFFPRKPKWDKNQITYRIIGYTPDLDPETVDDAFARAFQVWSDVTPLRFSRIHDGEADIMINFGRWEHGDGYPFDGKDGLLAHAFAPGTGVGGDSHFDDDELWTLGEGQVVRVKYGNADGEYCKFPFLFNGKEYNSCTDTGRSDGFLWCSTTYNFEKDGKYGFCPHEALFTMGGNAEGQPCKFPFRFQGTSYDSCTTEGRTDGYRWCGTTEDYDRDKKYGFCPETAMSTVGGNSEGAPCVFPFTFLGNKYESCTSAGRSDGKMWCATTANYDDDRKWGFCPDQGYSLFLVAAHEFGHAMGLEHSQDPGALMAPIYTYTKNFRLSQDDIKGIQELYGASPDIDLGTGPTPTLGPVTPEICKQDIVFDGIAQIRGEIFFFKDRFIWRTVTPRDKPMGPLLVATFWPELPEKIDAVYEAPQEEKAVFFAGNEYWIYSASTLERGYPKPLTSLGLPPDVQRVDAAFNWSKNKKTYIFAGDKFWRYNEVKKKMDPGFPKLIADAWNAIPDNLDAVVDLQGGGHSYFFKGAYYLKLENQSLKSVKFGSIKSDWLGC

[6] = molecular target: T1, Matrix metalloproteinase-9; experiment: Inhibition of human MMP9 up to 100 uM using (7-methoxycoumarin-4-yl) acetyl pro-Leu-Gly-Leu-[3-(2,4-dinitrophenyl)-L-2,3-diamino-propionyl]-Ala-Arg-NH2 as substrate preincubated for 30 mins followed by substrate addition by microplate reader analysis
Neutrophil collagenase [7] = molecular target: T2, Neutrophil collagenase; experiment: Inhibition of MMP8 (unknown origin) up to 100 uM using (7-methoxycoumarin-4-yl) acetyl pro-Leu-Gly-Leu-[3-(2,4-dinitrophenyl)-L-2,3-diamino-propionyl]-Ala-Arg-NH2 as substrate preincubated for 30 mins followed by substrate addition by microplate reader analysis
Target sequence in this assay (P22894 101-467 limits assumed): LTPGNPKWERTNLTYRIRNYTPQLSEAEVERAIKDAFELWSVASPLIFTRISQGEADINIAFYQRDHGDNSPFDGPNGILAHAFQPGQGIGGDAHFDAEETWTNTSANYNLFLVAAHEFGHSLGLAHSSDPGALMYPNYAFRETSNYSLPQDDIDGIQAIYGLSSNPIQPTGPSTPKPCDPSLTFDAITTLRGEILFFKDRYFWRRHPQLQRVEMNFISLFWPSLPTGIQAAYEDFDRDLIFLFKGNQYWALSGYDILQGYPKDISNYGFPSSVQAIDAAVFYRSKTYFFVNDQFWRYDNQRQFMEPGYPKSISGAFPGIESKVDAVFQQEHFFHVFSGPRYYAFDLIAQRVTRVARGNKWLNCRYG

Collagenase 3 [8] = molecular target: T3, Collagenase 3; experiment: Inhibition of MMP13 (unknown origin) up to 100 uM using (7-methoxycoumarin-4-yl) acetyl pro-Leu-Gly-Leu-[3-(2,4-dinitrophenyl)-L-2,3-diamino-propionyl]-Ala-Arg-NH2 as substrate preincubated for 30 mins followed by substrate addition by microplate reader analysis

| SMILES | IC50 [1] | IC50 (Neutrophil collagenase [2]) | IC50 (Collagenase 3 [3]) | IC50 [4] | inhibition [5] | inhibition [6] | inhibition (Neutrophil collagenase [7]) | inhibition (Collagenase 3 [8]) |
| --- | --- | --- | --- | --- | --- | --- | --- | --- |
| Cc1ccc(-c2ccc(S(=O)(=O)NC(C(C)C)P(=O)(O)O)cc2)s1 (stereo not given) | > 100000 nM | > 100000 nM | > 100000 nM | > 100000 nM |  |  |  |  |
| COc1ccc(S(=O)(=O)N(Cc2ccccc2)C(CC(C)C)P(=O)(O)O)cc1 (stereo not given) |  |  |  |  | inactive | inactive | inactive | inactive |
| COCc1ccc(-c2ccc(S(=O)(=O)NC(C(C)C)P(=O)(O)O)cc2)s1 (stereo not given) | > 100000 nM | > 100000 nM | > 100000 nM | > 100000 nM |  |  |  |  |
| COc1ccc(-c2ccc(S(=O)(=O)N[C@@H](CCCCCF)P(=O)(O)O)cc2)cc1 | 19 nM |  | 5.37 nM | 6.5 nM |  |  |  |  |
| COc1ccc(S(=O)(=O)N(Cc2ccccc2)C(C(C)C)P(=O)(O)O)cc1 (stereo not given) |  |  |  |  | inactive | inactive | inactive | inactive |
| COc1ccc(S(=O)(=O)N(Cc2cccnc2)C(CC(C)C)P(=O)(O)O)cc1 (stereo not given) |  |  |  |  | inactive | inactive | inactive | inactive |
| COc1ccc(S(=O)(=O)N(Cc2cccnc2)C(C(C)C)P(=O)(O)O)cc1 (stereo not given) |  |  |  |  | inactive | inactive | inactive | inactive |
| CC(C)C(NS(=O)(=O)c1ccc(-c2ccc(F)nc2)cc1)P(=O)(O)O (stereo not given) | 393 nM | > 100000 nM | 1030 nM | 628 nM |  |  |  |  |
| CC(C)C(N(Cc1ccccc1)S(=O)(=O)c1ccc(-c2ccc(OCCF)cc2)cc1)P(=O)(O)O (stereo not given) | 96.4 nM | 83.1 nM | 73.1 nM | 56.3 nM |  |  |  |  |
| COc1ccc(-c2ccc(S(=O)(=O)NC(C(C)C)P(=O)(O)O)cc2)cc1 (racemic) | 8.85 nM |  | 2.17 nM | 9.25 nM |  |  |  |  |
| COc1ccc(-c2ccc(S(=O)(=O)N[C@H](CCCCCF)P(=O)(O)O)cc2)cc1 | > 100000 nM | 42.2 nM | 93.8 nM | 791 nM |  |  |  |  |
| CC(C)C(NS(=O)(=O)c1ccc(-c2ccc(OCCF)cc2)cc1)P(=O)(O)O (stereo not given) | 18.5 nM |  | 2.41 nM | 11.7 nM |  |  |  |  |
